Experimental data as given in the NIST ThermoML archive (doi:10.1016/j.jct.2012.05.029).
Numbers after ± are expanded uncertainties.

Assay: molar enthalpy of vaporization or sublimation
Details: Liquid, Thermogravimetric Analysis

Row | SMILES | molar enthalpy (541.8 K) [kcal/mol] | further results
1 | CCCCCCCCn1cc[n+](C)c1.O=S(=O)([N-]S(=O)(=O)C(F)(F)F)C(F)(F)F | 29.3 ± 0.717 | 
2 | CCCC[n+]1ccn(C)c1.O=S(=O)([N-]S(=O)(=O)C(F)(F)F)C(F)(F)F | 27.1 ± 0.717 | 
3 | CCCCCCCCCCCCn1cc[n+](C)c1.O=S(=O)([N-]S(=O)(=O)C(F)(F)F)C(F)(F)F |  | molar enthalpy (533.5 K): 30.1 ± 0.717 kcal/mol
4 | CCCCCC[n+]1ccn(C)c1.O=S(=O)([N-]S(=O)(=O)C(F)(F)F)C(F)(F)F | 28.2 ± 0.717 | 
5 | CCCCCCCCCCn1cc[n+](C)c1.O=S(=O)([N-]S(=O)(=O)C(F)(F)F)C(F)(F)F |  | molar enthalpy (522 K): 29.9 ± 0.717 kcal/mol
6 | CCCCCCCCCCCCCCCCCC[n+]1ccn(C)c1.O=S(=O)([N-]S(=O)(=O)C(F)(F)F)C(F)(F)F |  | molar enthalpy (582.5 K): 33.1 ± 0.717 kcal/mol
7 | CCCCCCCCCCCCCCn1cc[n+](C)c1.O=S(=O)([N-]S(=O)(=O)C(F)(F)F)C(F)(F)F | 31.7 ± 0.717 | 
8 | CCCCCCCCCCCCCCCCn1cc[n+](C)c1.O=S(=O)([N-]S(=O)(=O)C(F)(F)F)C(F)(F)F | 32.6 ± 0.717 | 
